Columns and labels:
[1] = test system: angiotensin II-induced pressor responses; experiment: Test C: antagonism of angiotensin II-induced pressor responses in rats; type: in vivo; conditions: iv, rat, i.v. administration
Source text: The antagonism of one or more of the physiological actions of AII and, in particular, the antagonism of the interaction of AII with the receptors which mediate its effects on a target tissue, may be assessed using one or more of the following, routine laboratory procedures: Test C This in vivo test involves using terminally-anaesthetised or conscious rats in which an arterial catheter has been implanted under anaesthesia for the measurement of changes in blood pressure. The AII antagonistic effects of the test compound following oral or parenteral administration, are assessed against angiotensin II-induced pressor responses. To ensure that the effect is specific, the effect of the test compound on vasopressin-induced pressor responses may also be determined in the same preparation.

[2] = target: T1, AII receptors (guinea pig adrenal gland cell surface membrane fraction) (Cavia porcellus, UniProt Q9WV26); experiment: Test A: in vitro displacement of radiolabelled AII binding to guinea pig adrenal gland cell surface membranes; conditions: read-out: IC50 (concentration for 50% displacement of radiolabelled AII binding)
T1 construct: from tissue; host or cells: guinea pig adrenal gland, cell surface membrane fraction
T1 sequence (Q9WV26 1-359): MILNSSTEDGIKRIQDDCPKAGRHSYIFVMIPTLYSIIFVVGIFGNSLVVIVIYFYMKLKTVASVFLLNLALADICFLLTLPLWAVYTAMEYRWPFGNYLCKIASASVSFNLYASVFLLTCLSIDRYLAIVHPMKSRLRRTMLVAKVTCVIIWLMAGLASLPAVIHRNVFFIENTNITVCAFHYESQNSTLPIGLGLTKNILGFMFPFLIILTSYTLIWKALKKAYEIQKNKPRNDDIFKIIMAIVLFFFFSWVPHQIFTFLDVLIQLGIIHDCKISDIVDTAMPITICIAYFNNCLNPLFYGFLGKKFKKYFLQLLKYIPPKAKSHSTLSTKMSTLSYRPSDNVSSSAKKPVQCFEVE
Method: The antagonism of one or more of the physiological actions of AII and, in particular, the antagonism of the interaction of AII with the receptors which mediate its effects on a target tissue, may be assessed using one or more of the following, routine laboratory procedures:
This in vitro procedure involves the incubation of the test compound initially at a concentration of 100 micromolar (or less) in a buffered mixture containing fixed concentrations of radiolabelled AII and a cell surface membrane fraction prepared from a suitable angiotensin target tissue. In this test, the source of cell surface membranes is the guinea pig adrenal gland which is well known to respond to AII. Interaction of the radiolabelled AII with its receptors (assessed as radiolabel bound to the particlate membrane fraction following removal of unbound radiolabel by a rapid filtration procedure such as is standard in such studies) is antagonized by compounds which also bind to the membrane receptor sites and the degree of antagonism (observed in the test as displacement of membrane-bound radioactivity) is determined readily by comparing the receptor-bound radioactivity in the presence of the test compound at the specified test concentration with a control value determined in the absence of the test compound. […]

- IC50 [2]: 30 nM
Structure (SMILES): CCc1cc(OCc2ccc3oc(-c4ccccc4-c4nnn[nH]4)c(Br)c3c2)c2c(n1)CCCC2.Cl [Example 8, 4-[(3-bromo-2-(2-(1H-tetrazol-5-yl)phenyl)benzofuran-5-yl)methoxy]-2-ethyl-5,6,7,8-tetrahydroquinoline hydrochloride]
- ED50 [1]: 8.2 mg/kg
